This note sets out measurements from ChEMBL document CHEMBL1201862, “PubChem BioAssay data set” (2004).

Each structure is given as a SMILES string.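 Interpolation was linear, between the two tested concentrations surrounding the appropriate level; five concentrations were tested over 48 hours in 96-well plates. Abbreviation: GI50, concentration required for 50% inhibition of growth.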 The source made the active and inactive calls. Rule as the data show it: active = GI50 up to about 1.1 µM and inactive = higher.

Some test systems named below: CCRF-CEM; HCT-15; RPMI-8226; SK-MEL-28; HT-29; SF-539; IGROV-1; HOP-92; ACHN; RXF 393; SNB-19; SK-MEL-5; UACC-62; K562; COLO 205; SK-MEL-2; A498.
Assay in all cases: NCI-60 cell line screen, 48 h

Turning to `O=C(O)CNS(=O)(=O)c1ccc(NCc2ccccc2)cc1`, the GI50 was > 100 µM (inactive) in the experiment with CCRF-CEM; above 100 µM in the experiment on HCT-15; > 100 µM (inactive) in the experiment with RPMI-8226; > 100 µM (inactive) in the experiment on SK-MEL-28; > 100 µM (inactive) with HT-29; > 100 µM (inactive) in the experiment on SF-539. In addition, the GI50 in the experiment with IGROV-1, in the experiment on HOP-92, with ACHN, in the experiment with RXF 393, in the experiment on SNB-19 and in the experiment with SK-MEL-5 was > 100 µM (inactive) each time. For the same compound, the GI50 with UACC-62, with K562, in the experiment on COLO 205 and in the experiment with SK-MEL-2 was > 100 µM (inactive) throughout.
Take `COCCOCOC(CCCCO)c1cc(C)c(O[Si](C)(C)C(C)(C)C)c(C)c1` (stereo not drawn): the GI50 was 4.39 µM (inactive) in the experiment on CCRF-CEM; 7.36 µM with HCT-15; 2.08 µM (inactive) in the experiment with RPMI-8226; 12.3 µM (inactive) with SK-MEL-28; 12.4 µM (inactive) with SF-539; 12.2 µM (inactive) in the experiment with IGROV-1. Also, the GI50 in the experiment on ACHN was 7.62 µM (inactive); in the experiment on RXF 393, 2.26 µM (inactive); with SNB-19, 6.35 µM (inactive); in the experiment on SK-MEL-5 it was 2.64 µM (inactive); in the experiment with A498, 12.4 µM (inactive); in the experiment on UACC-62, 12.2 µM (inactive). In addition, the GI50 is 3.22 µM (inactive) in the experiment with K562, 7.71 µM (inactive) in the experiment with COLO 205 and 8.89 µM (inactive) in the experiment on SK-MEL-2.
Take `C#CCN(N=O)C(=O)NC(CCCCNC(=O)OCc1ccccc1)C(=O)OCc1ccccc1` (stereo not drawn): the GI50 in the experiment on CCRF-CEM was 17.5 µM (inactive); with HCT-15 it was 20.8 µM; with RPMI-8226, 18.7 µM (inactive); in the experiment with SK-MEL-28, 26.1 µM (inactive); with HT-29 it was 21.2 µM (inactive); with IGROV-1, > 100 µM (inactive). The GI50 in the experiment on HOP-92 was 15.7 µM (inactive); in the experiment on ACHN, 55.5 µM (inactive); in the experiment on RXF 393 it was 46.7 µM (inactive); with SNB-19 it was 47.2 µM (inactive); in the experiment with A498 it was > 100 µM (inactive); with UACC-62, 32.7 µM (inactive). The GI50 in the experiment on K562 is 20.5 µM (inactive); in the experiment on COLO 205, 28.5 µM (inactive); in the experiment on SK-MEL-2, 37.8 µM (inactive).
Turning to `CC1=C(C(=O)Nc2cccc(Cl)c2)C(c2ccccc2F)C(C(=O)Nc2cccc(Cl)c2)=C(C)N1`, the GI50 in the experiment with CCRF-CEM is 4.61 µM (inactive); in the experiment on RPMI-8226 it was 2.77 µM (inactive); in the experiment with SK-MEL-28, 10.6 µM (inactive); in the experiment on HT-29, 5.43 µM (inactive); in the experiment with SF-539, 13.9 µM (inactive); with IGROV-1, 15 µM (inactive). Besides, the GI50 in the experiment with HOP-92 was 1.15 µM (inactive); in the experiment on ACHN it was 9.98 µM (inactive); in the experiment with RXF 393 it was 7.24 µM (inactive); in the experiment on SNB-19 it was 19.2 µM (inactive); in the experiment with SK-MEL-5 it was 13.5 µM (inactive); in the experiment on A498, 13.9 µM (inactive). Also, the GI50 in the experiment on K562 is 4.79 µM (inactive); with COLO 205, 11.2 µM (inactive); with SK-MEL-2, 11.6 µM (inactive).
In the case of `CC1=NN(c2ccccc2)C(=O)C1=C1SCCS1`, the GI50 is 29.2 µM (inactive) in the experiment with CCRF-CEM; 40.9 µM with HCT-15; > 25.8 µM (inactive) in the experiment with RPMI-8226; > 100 µM (inactive) in the experiment with SK-MEL-28; > 74.5 µM (inactive) in the experiment with HT-29; > 100 µM (inactive) in the experiment with SF-539. In addition, the GI50 was 82.4 µM (inactive) in the experiment on IGROV-1; 37 µM (inactive) in the experiment with HOP-92; 97.1 µM (inactive) with ACHN; 37 µM (inactive) in the experiment with RXF 393; > 86.7 µM (inactive) in the experiment on SNB-19; 59.3 µM (inactive) in the experiment with SK-MEL-5. Besides, the GI50 in the experiment with A498 is > 77.1 µM (inactive); with UACC-62 it was > 62.2 µM (inactive); in the experiment on K562, 43.6 µM (inactive); in the experiment on COLO 205, 25.1 µM (inactive); in the experiment on SK-MEL-2, > 100 µM (inactive).
With `CN(C)CCNC(=O)c1cccc2c1nc(-c1ccncc1)c1ccccc12`, the GI50 in the experiment on CCRF-CEM is 2.4 µM (inactive); with HCT-15 it was 1.99 µM; in the experiment with SK-MEL-28, 5.15 µM (inactive); in the experiment with HT-29, 3.32 µM (inactive); in the experiment on SF-539, 2.03 µM (inactive); in the experiment with IGROV-1, 1.02 µM (active). For the same compound, the GI50 in the experiment on HOP-92 is 2.09 µM (inactive); in the experiment on ACHN it was 1.65 µM (inactive); in the experiment with RXF 393, 2.3 µM (inactive); with SNB-19 it was 3.94 µM (inactive); in the experiment on SK-MEL-5, 1.81 µM (inactive); with A498, 1.15 µM (inactive). Also, the GI50 in the experiment on UACC-62 was 1.88 µM (inactive); in the experiment on K562, 3.14 µM (inactive); with COLO 205, 1.61 µM (inactive); in the experiment on SK-MEL-2 it was 6.12 µM (inactive).
In the case of `CC1(c2ccc(F)cc2)C2C(=O)NC(=O)C1C(=O)NC2=O` (stereo not drawn), the GI50 is > 100 µM (inactive) in the experiment on CCRF-CEM; above 100 µM with HCT-15; > 100 µM (inactive) in the experiment on RPMI-8226; > 100 µM (inactive) in the experiment on SK-MEL-28; > 100 µM (inactive) in the experiment on HT-29; > 100 µM (inactive) with SF-539. The GI50 in the experiment with IGROV-1, with HOP-92, in the experiment on ACHN, with RXF 393, in the experiment on SNB-19 and in the experiment with SK-MEL-5 was > 100 µM (inactive) throughout. For the same compound, the GI50 with A498, in the experiment on UACC-62, in the experiment on K562, in the experiment on COLO 205 and with SK-MEL-2 was > 100 µM (inactive) in each case.
Consider `CCOc1ccc2c(c1)[n+]([O-])c(S(=O)(=O)c1ccc(C)cc1)c(N)[n+]2[O-]`, for which the GI50 with CCRF-CEM, in the experiment on RPMI-8226, in the experiment with SK-MEL-28, in the experiment with HT-29, in the experiment on SF-539 and with IGROV-1 was > 100 µM (inactive) each time. Besides, the GI50 with HOP-92, in the experiment with ACHN, in the experiment on SNB-19, in the experiment on SK-MEL-5, in the experiment on A498 and in the experiment with UACC-62 was > 100 µM (inactive) in each case. For the same compound, the GI50 with K562, in the experiment with COLO 205 and in the experiment on SK-MEL-2 was > 100 µM (inactive) in each case.
For the compound `CCOP(=O)(OCC)C(C(=O)OC)C(=O)C(=O)Nc1c(C)cc(Br)cc1C` (stereo not drawn), the GI50 is > 100 µM (inactive) in the experiment on CCRF-CEM; above 100 µM in the experiment with HCT-15; > 100 µM (inactive) with RPMI-8226; > 100 µM (inactive) in the experiment on SK-MEL-28; > 100 µM (inactive) with HT-29; > 100 µM (inactive) in the experiment with SF-539. Also, the GI50 with IGROV-1, with HOP-92, in the experiment with ACHN, in the experiment on RXF 393, with SNB-19 and with SK-MEL-5 was > 100 µM (inactive) in each case. In addition, the GI50 in the experiment on A498, with UACC-62, in the experiment on K562, in the experiment on COLO 205 and with SK-MEL-2 was > 100 µM (inactive) each time.
